The record followed here is article PMC7435868, “Structure-Based Virtual Screening, Synthesis and Biological Evaluation of Potential FAK-FAT Domain Inhibitors for Treatment of Metastatic Cancer” (Molecules, 2020).

SMILES strings stand for the structures.

Data set [1] in a line: Microsomal metabolic stability. How it is done: Half-life (t1/2) values were measured at five time points.
Intrinsic clearance values (CLint) with standard error and t1⁄2 values were measured.
The final incubation volume was 50 μL. A minus cofactor control incubation was included for each compound tested where 0.1 M phosphate buffer pH 7.4 was added instead of NADPH (minus NADPH). Two control compounds were included with each species. All incubations were performed singularly for each test compound.
The reactions were stopped by transferring 20 μL of incubate to 60 μL methanol at the appropriate time points. The termination plates were centrifuged at 2500 rpm for 20 min at 4 °C to precipitate the protein.
Following protein precipitation, the sample supernatants were combined in cassettes of up to 4 compounds, the internal standard was added, and samples were analysed using Cyprotex generic LC-MS/MS conditions.
From a plot of ln peak area ratio (compound peak area/internal standard peak area) against time, the gradient of the line was determined.

The next data set addresses hERG potassium channel (Homo sapiens, UniProt Q12809). The data set is described as follows: hERG channel inhibition (IonWorks automated patch clamp, CHO-hERG cells). A general note: Block of hERG is tested as a sign of cardiac risk.
Data set [2] concerns MDA-MB-231, T47D, BT474, and MIAPaCa2. The data set is described as follows: Cell viability assay, statements across the four cell lines. Type of data set: cell-based, human. The conditions noted are these: three human breast and one pancreatic cancer cell line, up to 100 μM. How it is done: (§1) The antiproliferative activity of compound I as well as its newly synthesised analogues (5a–i) was evaluated in vitro against the three human breast cancer cell lines MDA-MB-231 (TNBC), T47D (ER^+, HER^−), and BT474 (ER^+, HER^+) as well as a human pancreatic cancer cell line MIAPaCa2. The seeding of the corresponding cell lines started one day before incubation, which lasted for 72 h with the different concentrations of the tested compounds. CellTiter Glo reagent (25 μL) was added to the cell plate. The luminescence was analysed after 10 min using a PerkinElmer Envision instrument. The test compounds were used at ten different triplicate concentrations in half log increments up to 100 μM.

In a further data set the target is T1, FAK (Homo sapiens, UniProt Q05397).
T1 construct: in an in vitro model of TNBC, MDA-MB-231; endogenous in cells; host or cells: MDA-MB-231 (human triple negative breast cancer cells)
T1 sequence (Q05397 whole entry): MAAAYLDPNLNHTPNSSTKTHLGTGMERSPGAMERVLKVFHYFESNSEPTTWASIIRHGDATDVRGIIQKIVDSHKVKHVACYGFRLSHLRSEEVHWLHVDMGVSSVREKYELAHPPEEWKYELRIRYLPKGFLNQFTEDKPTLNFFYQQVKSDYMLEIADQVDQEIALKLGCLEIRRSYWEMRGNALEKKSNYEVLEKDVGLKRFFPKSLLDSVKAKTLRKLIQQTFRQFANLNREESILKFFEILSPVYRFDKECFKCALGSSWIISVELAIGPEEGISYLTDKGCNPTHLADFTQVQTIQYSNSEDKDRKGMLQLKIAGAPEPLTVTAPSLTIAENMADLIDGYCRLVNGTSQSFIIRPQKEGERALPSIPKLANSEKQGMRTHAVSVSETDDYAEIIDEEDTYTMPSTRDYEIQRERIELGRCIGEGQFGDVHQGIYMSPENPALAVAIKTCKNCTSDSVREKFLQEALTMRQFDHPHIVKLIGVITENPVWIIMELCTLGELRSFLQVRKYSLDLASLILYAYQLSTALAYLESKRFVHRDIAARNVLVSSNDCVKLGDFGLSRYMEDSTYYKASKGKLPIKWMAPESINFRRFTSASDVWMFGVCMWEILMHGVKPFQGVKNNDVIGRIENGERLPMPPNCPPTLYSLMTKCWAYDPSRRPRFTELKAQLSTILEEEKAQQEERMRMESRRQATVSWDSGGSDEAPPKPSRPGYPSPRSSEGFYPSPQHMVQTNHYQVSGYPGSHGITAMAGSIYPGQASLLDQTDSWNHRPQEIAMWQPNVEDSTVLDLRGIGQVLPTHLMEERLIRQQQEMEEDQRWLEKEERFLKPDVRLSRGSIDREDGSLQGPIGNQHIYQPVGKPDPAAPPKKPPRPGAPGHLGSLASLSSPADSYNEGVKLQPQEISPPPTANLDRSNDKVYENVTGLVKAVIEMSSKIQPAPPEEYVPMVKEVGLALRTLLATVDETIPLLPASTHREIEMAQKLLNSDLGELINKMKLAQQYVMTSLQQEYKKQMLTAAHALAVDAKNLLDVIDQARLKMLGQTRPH
The data set is described as follows: Western blotting of FAK activity. The conditions noted are these: MDA-MB-231, Western blot. The class given is cell-based. The text has this: This was expected, given that this compound limits protein–protein scaffolding interaction rather than kinase activity and subsequent phosphorylation of key FAK residues.

For a further data set, the system named is MIAPaCa2. Description: Cell viability assay (CellTiter Glo), MIAPaCa2. Type of data set: cell-based. The conditions noted are these: Homo sapiens, MIA PaCa-2, 72 h incubation, mean of independent triplicate experiments, read-out: In vitro anti-proliferative activity IC50, MIAPaCa2. How it is done: as §1
(ATP-based viability assays read luminescence as a measure of living cells.)

For data set [3], the system named is MDA-MB-231 cells. Description: Boyden chamber migration. The class given is cell-based, human. Particulars: 18 h Boyden chamber. The protocol: Migration was assessed utilising 24-well, transmembrane permeable support plates (Corning Lifesciences, Corning, New York, NY, USA) with 6.5 mm microporous membrane (8 μm pore size) inserts, each coated with 10 μg/mL fibronectin in sterile PBS. Inserts were placed into wells containing RPMI + 5% FCS (± treatments), before cells in serum-free RPMI were seeded into the top portion of each insert at a density of 50,000 cells/mL. Cells were then incubated at 37 °C and 5% CO2 for 18 h. After this migratory period was completed, cells were fixed to the underside of the inserts in 3.7% PFA in PBS and stained with 0.5% crystal violet solution. Resulting inserts were then imaged using a standard light microscope.

Data set [4] has as its system MDA-MB-231 cells. The data set is described as follows: Cell proliferation assay (7-day cell counting). The class given is cell-based, human. The conditions noted are these: 7-day proliferation, 1 μM, vs vehicle-only control. How it is done: To assess proliferation, cells were seeded at 4.2 × 10^5 cells/mL in 24-well plates. Following 24 h, the media were replaced with fresh RPMI + 5% FCS, in the presence or absence of treatments and a selection of wells counted (day 0 counts). Cells were subsequently counted each day up to 7 days to assess proliferation. Briefly, this entailed the removal of old media and the addition of trypsin/EDTA in order to lift cells before passing gently through a 25 G needle to achieve a single-cell suspension. The resulting solution was then added to isoton in a counting cup and the cell number was determined using a Coulter Multisizer III (Beckman Coulter Life Sciences, Indianopolis, IN, USA) Each well was counted twice with all conditions performed in triplicate.

The test system of data set [5] is MDA-MB-231. The data set is described as follows: Preliminary in vitro profiling of virtual hits. The class given is cell-based, human. The text has this:
Approximately 210,000 small molecules from the SPECS virtual library of compounds were imported, rendered, and minimised using a MMFF94x force field and run in a virtual screening simulations programme using Glide SP within Maestro software (Glide, version 9.5, Schrödinger; http://www.schrodinger.com). These compounds underwent four stages of filtration including prefiltration of the non-drug-like compounds in accordance with Lipinski’s rules and excluding chemically unstable and potentially toxic groups. This was followed by high throughput virtual screening (HTVS), standard precision virtual screening (SPVS) and extra precision virtual screening (XPVS). Each compound was positioned in the chosen pocket, which was made up of the area surrounding the three amino acids Asp 1036, Ser 910, and Lys 1032 within a 12 A° radius and scored for electrostatic and van der Waals interactions as implemented in the Schrodinger virtual screening package (version 9.5). […] These 25 hits underwent preliminary in vitro profiling in the metastatic triple negative breast cancer (TNBC) cell line (MDA-MB-231) for antiproliferative and antimigratory properties.

Data set [6] has as its system MDA-MB-231. Description: Cell viability assay (CellTiter Glo), MDA-MB-231. The class given is cell-based. The conditions noted are these: Homo sapiens, 72 h incubation, mean of independent triplicate experiments, read-out: In vitro anti-proliferative activity IC50, MDA-MB-231 ER- PR- HER-. How it is done:
as §1

Where [7] appears, read: human, pooled liver microsomes, pH 7.4.

hERG potassium channel, sequence (Q12809 whole entry): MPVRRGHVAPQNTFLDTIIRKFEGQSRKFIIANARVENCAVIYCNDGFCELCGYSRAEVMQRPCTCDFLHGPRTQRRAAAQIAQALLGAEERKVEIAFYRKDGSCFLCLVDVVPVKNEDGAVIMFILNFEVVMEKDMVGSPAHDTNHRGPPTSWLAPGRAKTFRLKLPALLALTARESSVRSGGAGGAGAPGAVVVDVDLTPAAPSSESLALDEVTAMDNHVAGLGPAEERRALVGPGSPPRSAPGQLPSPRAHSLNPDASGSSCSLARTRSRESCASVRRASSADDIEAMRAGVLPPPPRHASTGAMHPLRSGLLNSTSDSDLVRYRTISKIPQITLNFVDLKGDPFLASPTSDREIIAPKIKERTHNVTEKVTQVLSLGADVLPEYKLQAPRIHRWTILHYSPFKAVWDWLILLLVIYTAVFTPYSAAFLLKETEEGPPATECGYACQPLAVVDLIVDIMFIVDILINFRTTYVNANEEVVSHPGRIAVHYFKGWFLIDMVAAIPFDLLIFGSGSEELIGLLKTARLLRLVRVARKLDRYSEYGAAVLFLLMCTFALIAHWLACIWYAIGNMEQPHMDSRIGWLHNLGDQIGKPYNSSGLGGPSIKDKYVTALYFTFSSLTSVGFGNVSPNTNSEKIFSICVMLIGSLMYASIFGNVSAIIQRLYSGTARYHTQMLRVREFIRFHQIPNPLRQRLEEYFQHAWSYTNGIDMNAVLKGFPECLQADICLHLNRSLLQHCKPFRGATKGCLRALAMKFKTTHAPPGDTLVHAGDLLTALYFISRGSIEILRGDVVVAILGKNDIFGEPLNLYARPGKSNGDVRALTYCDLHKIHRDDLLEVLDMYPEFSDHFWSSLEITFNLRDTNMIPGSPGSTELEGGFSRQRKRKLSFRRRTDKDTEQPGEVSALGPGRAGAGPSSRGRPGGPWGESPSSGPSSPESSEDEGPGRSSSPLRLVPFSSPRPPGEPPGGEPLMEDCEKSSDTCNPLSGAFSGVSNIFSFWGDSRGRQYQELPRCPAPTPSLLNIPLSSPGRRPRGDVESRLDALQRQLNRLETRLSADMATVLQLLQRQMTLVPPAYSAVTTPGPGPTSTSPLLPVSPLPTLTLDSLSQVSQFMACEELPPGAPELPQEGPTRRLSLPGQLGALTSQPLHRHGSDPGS
Procedure for hERG potassium channel: Mammalian cells expressing the hERG potassium channel were dispensed into 384-well planar arrays and hERG tail-currents measured by whole-cell voltage-clamping. A range of concentrations of the test compound was then added to the cells and a second recording of the hERG current was made. […] IC50 is delivered, standard error (SE IC50), and n (number of data points used to calculate IC50) for the test compound. The experiments were performed on an Ion Works TM automated patch clamp instrument (Molecular Devices LLC (San Jose, California, United States)), which simultaneously performs electrophysiology measurements for 48 single cells in a specialised 384-well plate (PatchPlateTM(manufacturer, city, state if USA or Canada, country)). All cell suspensions, buffers, and test compound solutions were at room temperature during the experiment.
The cells used were Chinese hamster ovary (CHO) cells stably transfected with hERG (cell-line obtained from Cytomyx, UK). A single-cell suspension was prepared in extracellular solution (Dulbecco’s phosphate buffered saline with calcium and magnesium pH 7.2) and aliquots added automatically to each well of a Patch Plate TM. The cells were then positioned over a small hole at the bottom of each well by applying a vacuum beneath the plate to form an electrical seal. The vacuum was applied through a single compartment common to all wells which was filled with intracellular solution (buffered to pH 7.2 with HEPES). The resistance of each seal was measured via a common ground-electrode in the intracellular compartment and individual electrodes placed into each of the upper wells.
Electrical access to the cell was then achieved by circulating a perforating agent, amphotericin B, underneath the PatchPlateTM. The pre-compound hERG current was then measured. An electrode was positioned in the extracellular compartment and a holding potential of −80 mV applied for 15 s. The hERG channels were then activated by applying a depolarising step to +40 mV for 5 s and then clamped at −50 mV for 4 s to elicit the hERG tail current, before returning to −80 mV for 0.3 s.
The Ion Works TM instrument automatically adds test compound dilutions to the upper wells of the PatchPlateTM. The test compound was left in contact with the cells for 300 s before recording currents using the same voltage-step protocol as in the pre-compound scan.
Each concentration was tested in 4 replicate wells on the PatchPlateTM (maximum of 24 data points). Filters were applied to ensure only acceptable cells were used to assess hERG inhibition.
For each replicate, the hERG response was calculated using the following equation:% hERG response = [Post-compound current (nA)/Pre-compound current (nA)] × 100(5)

As usually defined, the half-life is the time in which the quantity being followed falls by half. Higher therefore signals slow decline. The term microsomal CLint denotes a measure of how fast metabolising enzymes remove a compound, apart from limits set by blood flow. Read a high microsomal CLint as rapid turnover. One may read the IC50 as the point on the concentration scale where inhibition reaches its midpoint. Consider `CC(C)(C)c1ccc(C(CN)c2ccc(Cl)cc2)cc1` (centres unmarked) [Compound I], for which the “Compound Remaining (% of 0 min), 0 min” value in data set [1] (human liver microsomes, 0 min) is on record as 100 % of 0 min. In addition, in [1] (human liver microsomes, 5 min), the “Compound Remaining (% of 0 min), 5 min” value is recorded as 89.4 % of 0 min. Further, the “Compound Remaining (% of 0 min), 15 min” value in [1] (human liver microsomes, 15 min) is 92.3 % of 0 min. Moreover, in data set [1] (human liver microsomes, 30 min), the “Compound Remaining (% of 0 min), 30 min” value is 77.9 % of 0 min. In [1] (human liver microsomes, 45 min), the “Compound Remaining (% of 0 min), 45 min” value is on record as 81.3 % of 0 min. Also, the “Compound Remaining (% of 0 min), Control” value in data set [1] (human liver microsomes, minus NADPH control, 45 min) was 95.7 % of 0 min. In [1] (setting [7]), this molecule returned a half-life at 3 μM of 2.53 h and a microsomal CLint at 3 μM of 9.1 µL/min/mg. In addition, the IC50 at hERG potassium channel was 5.47 µM. For the same molecule, in data set [2], the “Anti-proliferative activity (in words) across the four cell lines” value was “low micromolar antiproliferative activity”. Also, on FAK, the “Activity of FAK Y397 / FAK Y925 (phosphorylation)” value was “no significant changes” and the “Stability of total FAK protein” value is listed as “no changes in the stability of total FAK protein”. In addition, the IC50 in the data set on MIAPaCa2 was 5.66 µM. In addition, in the data set with MDA-MB-231 cells [3], the Serum-stimulated migration entry is on record as “significant reduction in serum-stimulated migration”. Also, the “Proliferation rates of MDA-MB-231 cells” value in the data set with MDA-MB-231 cells [4] is recorded as “significantly reduce proliferation rates”. For the same molecule, the “Antiproliferative and antimigratory properties (preliminary profiling)” value in the data set with MDA-MB-231 [5] was “low micromolar antiproliferative and antimigratory properties exceeding those of chloropyramine (C4)”. The 50% inhibitory concentration (IC50) in the data set with MDA-MB-231 [6] was found to be 6.37 µM.
